# From patent US11813264B2, “PAR1 modulation to alter myelination” (Mayo Foundation for Medical Education and Research, priority 2014, dated 2023)
# Entries after “also recorded” stand apart in the source; their conditions may differ.
# Assays:
# [1] = target: T1, PAR1 (Mus musculus, UniProt P30558); assay: Organotypic cerebellar slice culture with PAR1 inhibitor; type: cell-based; parameters: endogenous in cells; host or cells: primary mouse oligodendrocytes (OPCs shaken from P1 cortical mixed glial cultures); settings: 70 nM, 7 days
# T1 sequence (P30558 22-430): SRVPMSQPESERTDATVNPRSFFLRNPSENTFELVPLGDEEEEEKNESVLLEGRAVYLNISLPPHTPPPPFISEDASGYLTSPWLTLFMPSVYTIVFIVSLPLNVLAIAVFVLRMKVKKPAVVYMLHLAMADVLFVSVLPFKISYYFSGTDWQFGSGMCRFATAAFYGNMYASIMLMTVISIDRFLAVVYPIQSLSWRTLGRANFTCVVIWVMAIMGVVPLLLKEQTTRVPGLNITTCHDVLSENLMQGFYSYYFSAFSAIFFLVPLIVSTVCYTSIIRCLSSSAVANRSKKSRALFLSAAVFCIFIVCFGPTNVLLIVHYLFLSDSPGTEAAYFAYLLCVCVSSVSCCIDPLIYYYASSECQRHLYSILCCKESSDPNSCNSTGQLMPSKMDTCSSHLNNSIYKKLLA
# Procedure: Pharmacologic inhibition of PAR1 in an organotypic cerebellar slice culture system: Cerebellar slices (350 μm) from postnatal day 8 mouse brain were grown in cell culture for 7 days in the presence or absence of 70 nM SCH79797, a small molecule inhibitor of PAR1. Cerebellar slices were then fixed with 2% paraformaldehyde and stained using immunofluorescence techniques for myelin associated makers, including MBP, a marker of mature oligodendrocytes (CC-1), and for a marker of oligodendrocyte progenitor cells (NG2). The photomicrographs in FIG. 16 show staining for each individual antigen, or for all of the antigens collectively in a single slice, as indicated.
# [2] = target: T1, PAR1; assay: Neural precursor cell proliferation (BrdU incorporation); type: cell-based; parameters: endogenous in cells; settings: 70, 35, 10 or 1 nM; NPCs from adult SVZ
# Procedure: Effects of pharmacologic inhibition of PAR1 on NPC proliferation in vitro: NPCs were isolated from the SVZ of 8 week-old adult C57BL6/J mice, cultured in suspension, and treated with 70, 35, 10, or 1 nM of SCH79797, a small molecule inhibitor of PAR1.
# [3] = target: T1, PAR1; assay: Oligodendrocyte gene expression after PAR1 inhibitor treatment, real time RT-PCR; type: cell-based; parameters: endogenous in cells; host or cells: primary mouse oligodendrocytes (OPCs shaken from P1 cortical mixed glial cultures); settings: 70 nM for 48 hours
# [4] = tested on: oligodendrocyte progenitor cells (OPCs); assay: OPC process outgrowth; type: cell-based, mouse
# Procedure: Oligodendrocyte Cultures: Purified cortical oligodendrocyte progenitor cells (OPCs) and differentiated oligodendrocytes were isolated from mixed glial cultures derived from postnatal day 1 mice (McCarthy and de Vellis, J Cell Blot 85:890-902, 1980). Glial cultures were grown in media containing DMEM, 2 mM Glutamax, 1 mM sodium pyruvate, 20 mM HEPES, and 10% heat-inactivated fetal calf serum (Atlanta Biologicals, Lawrenceville, GA). OPCs were isolated from 10 days-in-vitro (DIV) mixed glial cultures by overnight shaking and purified by differential adhesion. OPCs were seeded in defined Neurobasal A media containing 1% N2, 50 U/mL penicillin/streptomycin, 2 mM Glutamax, 1 mM sodium pyruvate, 0.45% glucose, and 50 μM β-mercaptoethanol (Sigma Aldrich, USA). OPCs were seeded at 3×10^4/cm^2 onto tissue culture plastic or 12 mm glass cover slips coated with poly-L-lysine (PLL, 10 μg/mL). After 24 h, cultures were 92-98% immunoreactive (IR) for sulfatide (O4) and by 72 hours at least 80% were also MBP-IR.
# PAR agonist-induced changes in oligodendrocyte morphology: To determine the effects of recombinant Klk6, Klk1, thrombin, or PAR1-AP on oligodendroglia, 3 DIV PAR1^+/+, PAR1^−/−, and PAR2^−/− oligodendrocytes, PAR1^+/+ OPCs immediately post purification, or Oli-neu cells were grown on cover slips in the presence of agonists for 24 h. For ATP toxicity assays, oligodendrocytes were incubated with ATP (50 μM, Sigma Aldrich) in the presence of Klk6 or Klk1. Following each treatment, oligodendrocyte and OPC cultures were immunolabeled for O4 to visualize the cell body and processes. Oli-neu processes were visualized by staining the actin cytoskeleton with Cy3-conjugated Phalloidin.
# To assess the effects of Klk6 and other PAR1 agonists on oligodendrocyte morphology and process stability, 20× digital micrographs were overlaid with a 780 μm^2 grid and ImageJ software 1.45r (National Institutes of Health) used to record cell number and the number of processes crossing horizontal grid lines (Scarisbrick et al., Brain 125:1283-1296, 2002). Data are expressed as the mean number of O4^+ or Phalloidin^+ processes per DAPI^+ cell (±SEM).
# Changes in OPC or oligodendrocyte morphology were quantified from five microscopic fields per cover slip with the mean and SEM calculated across three cover slips per experiment. Each experiment was repeated at least twice using independent cultures. Analysis of oligodendrocyte morphology was performed without knowledge of treatment groups.
# [5] = tested on: Erk1/2 phosphorylation; assay: Klk6-PAR signaling assay, Erk1/2 phosphorylation by Western blot in Oli-neu; type: cell-based, mouse
# Procedure: Klk6-PAR signaling assays: To examine the ability of Klk6 to mediate PAR-dependent signaling in oligodendrocytes, Oli-neu oligodendroglia (3.5×10^5 cells/well in six-well plates) were treated with Klk6 (150 nM) for 10 min, followed by protein harvest. Cell lysates were analyzed for phosphorylated or nonphosphorylated Erk1/2 by Western blot. In experiments to determine the role of PARs in Klk6 signaling, Oli-neu were preincubated with the PAR1 antagonist, SCH79797 dihydrochloride (50 nM, Tocris Biosciences, Minneapolis, MN) for 30 minutes prior to Klk6 application.
# Western blot: Oli-neu lysates were obtained using a buffer containing 1% NP40, 0.5% deoxycholate, 10% glycerol, and 20 mM Tris base and separated on SDS-polyacrylamide gels prior to transfer. Membranes were blocked with 5% milk in TBS-T and incubated overnight with primary antibodies including rabbit anti-phospho-Erk1/2 (1:1,000, Cell Signaling Technology, Danvers, MA), followed with a species-appropriate horseradish peroxidase-conjugated secondary antibody (1:20,000 GE Healthcare Unlimited, UK). Signal was detected using Chemiluminescence Supersignal Pico (Pierce, Rockford, IL). Western blots were repeated three times from independent cultures, scanned, and quantified by densitometry (BioRad Quantity One 1-D Analysis Software, BioRad, Hercules, CA). Erk1/2 signal was normalized to its nonphosphorylated form. Equal loading was verified by reprobing blots for […] (Novus Biologicals, Littleton, CO).
compound,measurement,setting,value
CC(C)c1ccc(Cn2ccc3c4c(N)nc(NC5CC5)nc4ccc32)cc1 [SCH79797],number of mature oligodendrocytes (CC-1),[1],significant increases
same,number of progenitor cells positive for NG2,[1],significant increases
same,abundance of MBP,[1]; P8 cerebellar slices,significant increases
same,BrdU incorporation,[2],greater levels
same,NogoA RNA,[3],decrease
same,Olig2 RNA,[3],decrease
same,expression of MBP RNA,[3],significant increase
same,expression of PLP RNA,[3]; oligodendrocytes 24 hours in culture,significant increase
same,Klk6-mediated inhibition of process outgrowth in presence of inhibitor,[4]; SCH79797 50 nM,diminished
same,attenuation of the ability of Klk6 to reduce OPC process outgrowth,[4]; SCH79797 50 nM for 3 hours prior to Klk6,~34%
same,OPC process outgrowth relative to vehicle controls,[4]; SCH79797 alone,no significant effect
same,ability of Klk6 to induce MAPK (Erk1/2) signaling in presence of inhibitor,"[5]; SCH79797 50 nM, preincubated 30 minutes",blocked; also recorded: abolished
same,Erk1/2 phosphorylation,"[5]; treatment alone, Klk6 10 minutes",No significant changes
